Experimental findings from patent publication US20250282802A1, “P[…] AND METHODS” (priority 2020, published 2025) are described below.

In general, IC50 refers to the concentration needed to halve the response being measured. Lower therefore signals greater potency. In general, Emax refers to the greatest response seen or fitted, relative to the assay's reference. By MIC is commonly meant the smallest concentration in the dilution series that meets the test's criterion for growth inhibition.

Read-outs that look alike come from different tables or passages of the source.

In assay [1] the test system is A-172 (human glioma cancer). Nature of the assay: Cell culture cytotoxicity screening (Alamar Blue), A-172. Format: cell-based. As to the method: (§1) FIG. 8. Cytotoxicity of pantaphos across various cancer cell lines. Assays were conducted as described (mBio. 2021 Feb. 2; 12(1):e03402-20), using the Alamar Blue method with 72-hour treatment using Raptinal ([…]) as Dead cell control; n=3. Cell seeding densities: CT26 (colon carcinoma) 2000 c/w; HOS (osteosarcoma) 2500 c/w; ES-2 (ovarian carcinoma), HCT-116 (colorectal carcinoma), A-549 (lung carcinoma), A-172 (glioblastoma), D54 (glioblastoma), U87 (glioblastoma), T98G (glioblastoma), SK-ML-28 (melanoma), MCF-7 (breast cancer), AM38 (glioblastoma) and MDA-MB-231 (breast cancer) 3000 c/w; U118MG (malignant glioma) 4000 c/w; HepG2 (liver cancer) 8000 c/w. c/w=cells per well. IC50 and Emax values shown in Table 6 were extracted from the raw data plotted in FIG. 8.
Cell culture cytotoxicity screening. The compounds were evaluated for their ability to kill cancer cell lines in culture, using HOS (osteosarcoma); ES-2 (ovarian cancer); HCT 116 (colon cancer); A549 (lung carcinoma); and A172 (glioma) cells. Human skin fibroblast cells (HFF-1) were also assessed. Cells were seeded (3000 cells well^−1 for ES-2, HCT 116, A549 and A172; 4000 cells well^−1 for HFF-1 and 2500 cells well^−1 for HOS) in a 96-well plate and allowed to attach overnight. Cells were treated with pantaphos in water. The concentrations of the tested compounds were 5 nM to 100 μM (1% water final; 100 μl well^−1). Raptinal (50 μM) was used as a dead control. On each plate, five technical replicates per compound were performed. 72 hours post-treatment, cell viability was assessed using the Alamar Blue method (http://www.bio-rad-antibodies.com/measuring-cytotoxicity-proliferation-spectrophotometry-fluorescence-alamarBlue.html). Alamar Blue solution (10 μl of 440 μM resazurin in sterile 1×PBS) was added to each well, and the plate was incubated for 3-4 hrs. Conversion of Alamar Blue was measured with a plate reader (SpectraMax M3; Molecular Devices) by fluorescence (excitation wavelength: 555 nm; emission wavelength: 585 nm; cutoff 570 nm; autogain). Percentage death was determined by normalizing to water-treated cells and Raptinal-treated cells. For IC50 determination, the data were plotted as compound concentration versus dead cell percentage and fitted to a logistic-dose-response curve using OriginPro 2019 (OriginLab). The data were generated in triplicate, and IC50 values are reported as the average of three separate experiments along with SEM values.

A further assay relates to onion bulbs. Nature of the assay: Onion bioactivity assay (center rot). The settings on record: 30° C. Type of assay: in vivo, Allium cepa (onion). The protocol: Onion bioactivity assays. Yellow onions purchased from a local market were surface sterilized in a laminar flow biosafety hood as follows. First, the outermost layers with any damage or browning were removed and discarded, followed by soaking for 10 minutes in 10% bleach. The onions were then rinsed three times with sterile dH2O, followed by soaking in 70% EtOH for an additional 10 minutes, then rinsed four times with sterile dH2O. The onions were left in a biosafety laminar flow hood until water and ethanol were completely evaporated. For testing virulence of microbial strains, the onions were inoculated by stabbing with a previously sterilized wooden toothpick dipped into a bacterial cell suspension (1×10^3 CFU/mL in 1×PBS buffer). Chemical complementation studies were performed by addition of 100 μL of filter-sterilized sample into the hole created by the toothpick during inoculation. For testing bioactivity of crude and purified chemical samples in the absence of bacteria, holes were punched in sterilized onions using sterile toothpicks followed by addition of 100 μL of a filter-sterilized sample. Following inoculation and/or treatment with filter-sterilized compounds, the onions were placed in zip-lock plastic bags and incubated at 30° C. in the dark for the indicated number of days. […]

The test system of assay [2] is Acinetobacter baumannii ATCC 19606. Nature of the assay: Antibacterial bioassay (MIC), Acinetobacter baumannii. As to conditions: CLSI. Format: cell-based. The protocol: Antibacterial bioassays. Susceptibility testing for the ESKAPE pathogens and Salmonella enterica LT2 was performed using a Kirby-Bauer method as outlined by the Clinical and Laboratory Standards Institute (CLSI). For rich media bioassays, Mueller Hinton Broth 2 (MH-2, Sigma-Aldrich, 90922) was used for all strains except 1% BHI was supplemented for Enterococcus faecalis ATCC 19433. For minimal media bioassays, glucose-MOPS minimal medium was used. Briefly, overnight bacterial cultures were sub-cultured and inoculated into 5 mL top agar (0.7% agar) for final concentration of 5×10^5 CFU/mL. Then, 20 μL of a compound 2-fold dilution series (200, 100, 50, 25, 12.5, 6.25 μM in water) was spotted on 6 mm diameter blank paper discs (BD BBL™ 231039). Control discs received 20 μL of 50 mg/mL kanamycin. Plates were incubated at 35° C. for 20-24 hours. […] Sensitivity of the IPTG-inducible phosphonate uptake strain WM6242 to pantaphos was tested using a disk diffusion assay. Plates containing growth medium were overlayed with 5 mL of top agar (0.7% agar) inoculated with 100 μL (OD600=0.8) of the phosphonate-specific E. coli indicator strain (WM6242) with or without addition of 1 mM IPTG. WM6242 is engineered with an IPTG-inducible, non-specific phosphonate uptake system (phnCDE). […]

Assay [3] concerns A-549 (human lung carcinoma). Description: Cell culture cytotoxicity screening (Alamar Blue), A-549. Type of assay: cell-based. As to conditions: A549, A-549, Alamar Blue, 72 hours. The protocol: as §1, with “IC50 and Emax values shown in Table 6 were extracted from the raw data plotted in FIG. 8.” left out
Cell culture cytotoxicity screening. The compounds were evaluated for their ability to kill cancer cell lines in culture, using HOS (osteosarcoma); ES-2 (ovarian cancer); HCT 116 (colon cancer); A549 (lung carcinoma); and A172 (glioma) cells. Human skin fibroblast cells (HFF-1) were also assessed. […] 72 hours post-treatment, cell viability was assessed using the Alamar Blue method (http://www.bio-rad-antibodies.com/measuring-cytotoxicity-proliferation-spectrophotometry-fluorescence-alamarBlue.html). […] Conversion of Alamar Blue was measured with a plate reader (SpectraMax M3; Molecular Devices) by fluorescence (excitation wavelength: 555 nm; emission wavelength: 585 nm; cutoff 570 nm; autogain). […]
(Alamar Blue is a resazurin reagent that responds to reducing activity.)

As for `O=C(O)/C=C(\C(=O)O)C(O)P(=O)(O)O` (stereo not shown) [pantaphos, 2-(hydroxy(phosphono)methyl)maleate], the IC50 in assay [1] (A 172, 72 h, A-172, Alamar Blue, 72-hour treatment (Table 6)) worked out at 1010 ± 60 nM; in assay [1] (A 172, 72 h, A-172, Alamar Blue, 72 hours) it was 1000 nM; in assay [1] (A 172, A-172 (text of Example 5)), 1000 nM; in assay [3], 14700 ± 610 nM. Moreover, the Emax is 99% in assay [1] (A-172, Alamar Blue, 72 hours, read-out: Emax = percentage cell death (converted)) and 66% in assay [3] (read-out: Emax = percentage cell death (converted)). Besides, in the assay with onion bulbs (co-inoculated with hvr mutant), the “onion center rot on co-inoculation with the P. ananatis hvr deletion mutant (chemical complementation)” value was “resulted in onion rot”. The “onion rot lesions after injection in the absence of bacteria” value in the assay on onion bulbs (surface sterilized onion bulbs, 100 μL filter-sterilized sample, no bacteria) is listed as “severe onion rot lesions”. The MIC in assay [2] (ATCC19606, Mueller-Hinton 2 medium, read-out: MIC, Rich medium) is > 200 µM; in assay [2] (ATCC19606, glucose-MOPS minimal medium, read-out: MIC, Minimal medium), > 200 µM.
